In ChEMBL document CHEMBL3091296, “Design, synthesis and biological evaluation of 3-benzyloxy-linked pyrimidinylphenylamine derivatives as potent HIV-1 NNRTIs” (Bioorg Med Chem, 2013):

Tests used:
[1] = Cytotoxicity against mock-infected human MT4 cells after 5 days by MTT assay; type: cell-based
[2] = Selectivity index, ratio of CC50 for human MT4 cells to EC50 for wild-type HIV1 3B infected in MT4 cells; type: toxicity, cell-based; conditions: read-out: Ratio CC50/EC50
[3] = tested on: Human immunodeficiency virus 2; assay: Antiviral activity against HIV2 ROD infected in MT4 cells assessed as reduction in virus-induced cytopathic effect after 5 days by MTT assay; type: functional, organism-based; conditions: Human immunodeficiency virus 2, ISOLATE ROD, MT4, 120 h
[4] = tested on: Human immunodeficiency virus 1; assay: Antiviral activity against HIV1 harboring reverse transcriptase K103N/Y181C mutant infected in MT4 cells assessed as reduction in virus-induced cytopathic effect after 5 days by MTT assay; type: functional, organism-based; conditions: Human immunodeficiency virus 1, MT4, 120 h
[5] = tested on: Human immunodeficiency virus 1; assay: Antiviral activity against wild-type HIV1 3B infected in MT4 cells assessed as reduction in virus-induced cytopathic effect after 5 days by MTT assay; type: functional, organism-based; conditions: Human immunodeficiency virus 1, 3B, MT4, 120 h
[6] = molecular target: Human immunodeficiency virus type 1 reverse transcriptase (Human immunodeficiency virus 1, UniProt Q72547); assay: Inhibition of HIV-1 reverse transcriptase assessed as inhibition of biotin dUTP incorporation by primer extension assay

**Q.** With `COc1ccnc(Nc2ccc(Cl)c(OCc3cccc(Cl)c3)c2)n1` as the compound, how does the CC50 at 120 h [1] read?
**A.** > 332 µM

**Q.** What about the selectivity ratio [2] of the same compound?
**A.** > 1460

**Q.** What about the EC50 [3] of the same compound?
**A.** > 332 µM

**Q.** And the EC50 [4]?
**A.** > 332 µM

**Q.** What about the EC50 [5] of the same compound?
**A.** 0.23 µM

**Q.** Which results are given for `COc1ccnc(Nc2ccc(Cl)c(OCc3ccc(Cl)cc3)c2)n1`?
**A.** CC50 at 120 h [1]: 95 µM; selectivity ratio [2]: 12; EC50 [3]: > 95 µM; EC50 [4]: > 95 µM; EC50 [5]: 7.7 µM

**Q.** Which CC50 at 120 h [1] does the source give for `COc1ccnc(Nc2ccc(Cl)c(OCc3ccccc3C#N)c2)n1` here?
**A.** 199 µM

**Q.** And the selectivity ratio [2]?
**A.** 1290

**Q.** What about the EC50 [3] of the same compound?
**A.** > 199 µM

**Q.** What about the EC50 [4] of the same compound?
**A.** > 199 µM

**Q.** What about the EC50 [5] of the same compound?
**A.** 0.15 µM

**Q.** Which results are given for `COc1ccnc(Nc2ccc(Cl)c(OCc3ccccc3)c2)n1`?
**A.** CC50 at 120 h [1]: 62 µM; selectivity ratio [2]: 833; EC50 [3]: > 62 µM; EC50 [4]: > 62 µM; EC50 [5]: 0.075 µM

**Q.** Which CC50 at 120 h [1] does the source give for `COc1ccc(COc2cc(Nc3nccc(OC)n3)ccc2Cl)cc1` here?
**A.** ≥ 290 µM

**Q.** What about the selectivity ratio [2] of the same compound?
**A.** ≥ 37

**Q.** And the EC50 [3]?
**A.** > 290 µM

**Q.** What about the EC50 [4] of the same compound?
**A.** > 290 µM

**Q.** What about the EC50 [5] of the same compound?
**A.** 7.8 µM

**Q.** Which IC50 [6] does the source give for `COc1ccnc(Nc2ccc(Cl)c(OCc3cccc(F)c3)c2)n1` here?
**A.** 1.5 µM

**Q.** What about the CC50 at 120 h [1] of the same compound?
**A.** > 347 µM

**Q.** And the selectivity ratio [2]?
**A.** > 4870

**Q.** What about the EC50 [3] of the same compound?
**A.** > 347 µM

**Q.** What about the EC50 [4] of the same compound?
**A.** > 347 µM

**Q.** What about the EC50 [5] of the same compound?
**A.** 0.07 µM

**Q.** What does the source list for `COc1ccnc(Nc2ccc(Cl)c(OCc3ccc(Cl)c(Cl)c3)c2)n1`?
**A.** CC50 at 120 h [1]: > 304 µM; selectivity ratio [2]: > 1; EC50 [3]: > 304 µM; EC50 [5]: > 304 µM

**Q.** With `COc1ccnc(Nc2ccc(Cl)c(OCc3ccccc3F)c2)n1` as the compound, how does the CC50 at 120 h [1] read?
**A.** 42 µM

**Q.** What about the selectivity ratio [2] of the same compound?
**A.** 777

**Q.** And the EC50 [3]?
**A.** > 42 µM

**Q.** What about the EC50 [4] of the same compound?
**A.** > 42 µM

**Q.** And the EC50 [5]?
**A.** 0.05 µM

**Q.** Which CC50 at 120 h [1] does the source give for `COc1ccnc(Nc2ccc(Cl)c(OCc3ccc(Br)cc3)c2)n1` here?
**A.** 224 µM

**Q.** What about the selectivity ratio [2] of the same compound?
**A.** 10

**Q.** And the EC50 [3]?
**A.** > 224 µM

**Q.** And the EC50 [4]?
**A.** > 224 µM

**Q.** What about the EC50 [5] of the same compound?
**A.** 23 µM

**Q.** What does the source list for `Cc1ccnc2c1NC(=O)c1cccnc1N2C1CC1` [NEVIRAPINE]?
**A.** CC50 at 120 h [1]: > 15 µM; EC50 [4]: > 5 µM; EC50 [5]: 0.113 µM

**Q.** Which CC50 at 120 h [1] does the source give for `COc1ccnc(Nc2ccc(Cl)c(OCc3ccccc3Cl)c2)n1` here?
**A.** 33 µM

**Q.** What about the selectivity ratio [2] of the same compound?
**A.** 143

**Q.** And the EC50 [3]?
**A.** > 33 µM

**Q.** What about the EC50 [4] of the same compound?
**A.** > 33 µM

**Q.** What about the EC50 [5] of the same compound?
**A.** 0.23 µM

**Q.** For `COc1ccnc(Nc2ccc(Cl)c(Oc3ccccc3)c2)n1`, which selectivity ratio [2] is on record?
**A.** 15

**Q.** Which CC50 at 120 h [1] does the source give for `COc1ccnc(Nc2ccc(Cl)c(OCc3cccc(Br)c3)c2)n1` here?
**A.** > 297 µM

**Q.** And the selectivity ratio [2]?
**A.** > 393

**Q.** What about the EC50 [3] of the same compound?
**A.** > 297 µM

**Q.** And the EC50 [4]?
**A.** > 297 µM

**Q.** What about the EC50 [5] of the same compound?
**A.** 0.76 µM

**Q.** With `COc1ccnc(Nc2ccc(Cl)c(OCc3ccccc3Br)c2)n1` as the compound, how does the CC50 at 120 h [1] read?
**A.** 52 µM

**Q.** What about the selectivity ratio [2] of the same compound?
**A.** 158

**Q.** What about the EC50 [3] of the same compound?
**A.** > 52 µM

**Q.** What about the EC50 [4] of the same compound?
**A.** > 52 µM

**Q.** What about the EC50 [5] of the same compound?
**A.** 0.33 µM

**Q.** What does the source list for `O=C1Nc2ccc(Cl)cc2[C@@](C#CC2CC2)(C(F)(F)F)O1` [EFAVIRENZ]?
**A.** selectivity ratio [2]: > 693; EC50 [4]: 0.52 µM; EC50 [5]: 0.009 µM

**Q.** What does the source list for `COc1ccnc(Nc2ccc(Cl)c(OCc3ccc([N+](=O)[O-])cc3)c2)n1`?
**A.** CC50 at 120 h [1]: > 323 µM; selectivity ratio [2]: > 1; EC50 [5]: > 323 µM

**Q.** Which CC50 at 120 h [1] does the source give for `COc1ccnc(Nc2ccc(Cl)c(OCc3ccc(F)cc3)c2)n1` here?
**A.** 218 µM

**Q.** What about the selectivity ratio [2] of the same compound?
**A.** 309

**Q.** And the EC50 [3]?
**A.** > 218 µM

**Q.** What about the EC50 [4] of the same compound?
**A.** > 218 µM

**Q.** What about the EC50 [5] of the same compound?
**A.** 0.71 µM

**Q.** Which CC50 at 120 h [1] does the source give for `COC(=O)c1ccc(COc2cc(Nc3nccc(OC)n3)ccc2Cl)cc1` here?
**A.** ≥ 106 µM

**Q.** And the selectivity ratio [2]?
**A.** < 1

**Q.** What about the EC50 [3] of the same compound?
**A.** > 1.6 µM

**Q.** And the EC50 [5]?
**A.** > 106 µM

**Q.** For `COc1ccnc(Nc2ccc(Cl)c(OCc3ccc(C#N)cc3)c2)n1`, which CC50 at 120 h [1] is on record?
**A.** 283 µM

**Q.** And the selectivity ratio [2]?
**A.** 17

**Q.** And the EC50 [3]?
**A.** > 283 µM

**Q.** And the EC50 [4]?
**A.** > 283 µM

**Q.** And the EC50 [5]?
**A.** 17 µM

**Q.** What does the source list for `COc1ccnc(Nc2ccc(Cl)c(OCc3ccc(Cl)cc3Cl)c2)n1`?
**A.** CC50 at 120 h [1]: 77 µM; selectivity ratio [2]: < 1; EC50 [3]: > 77 µM; EC50 [5]: > 77 µM

**Q.** Which CC50 at 120 h [1] does the source give for `COc1ccnc(Nc2ccc(Cl)c(OCc3ccc(C(N)=O)cc3)c2)n1` here?
**A.** > 325 µM

**Q.** And the selectivity ratio [2]?
**A.** > 9

**Q.** And the EC50 [3]?
**A.** > 325 µM

**Q.** What about the EC50 [4] of the same compound?
**A.** > 325 µM

**Q.** What about the EC50 [5] of the same compound?
**A.** 35 µM

**Q.** Which CC50 at 120 h [1] does the source give for `COc1ccnc(Nc2ccc(Cl)c(OCc3ccccc3C)c2)n1` here?
**A.** 8.8 µM

**Q.** And the selectivity ratio [2]?
**A.** 106

**Q.** What about the EC50 [3] of the same compound?
**A.** > 8.8 µM

**Q.** What about the EC50 [4] of the same compound?
**A.** > 8.8 µM

**Q.** And the EC50 [5]?
**A.** 0.082 µM
